Assays:
Format in all cases: functional
[1] = molecular target: T1, Calcium-dependent protein kinase 4 (Plasmodium falciparum (isolate 3D7), UniProt Q8IBS5); assay: MMV: CDPK4 Protein kinase inhibition assay using recombinant PfCDPK4, syntide2 peptide substrate, ATP and KinaseGlo to measure % inhibition at 1 uM MMV box compound.
T1 sequence (Q8IBS5 whole entry): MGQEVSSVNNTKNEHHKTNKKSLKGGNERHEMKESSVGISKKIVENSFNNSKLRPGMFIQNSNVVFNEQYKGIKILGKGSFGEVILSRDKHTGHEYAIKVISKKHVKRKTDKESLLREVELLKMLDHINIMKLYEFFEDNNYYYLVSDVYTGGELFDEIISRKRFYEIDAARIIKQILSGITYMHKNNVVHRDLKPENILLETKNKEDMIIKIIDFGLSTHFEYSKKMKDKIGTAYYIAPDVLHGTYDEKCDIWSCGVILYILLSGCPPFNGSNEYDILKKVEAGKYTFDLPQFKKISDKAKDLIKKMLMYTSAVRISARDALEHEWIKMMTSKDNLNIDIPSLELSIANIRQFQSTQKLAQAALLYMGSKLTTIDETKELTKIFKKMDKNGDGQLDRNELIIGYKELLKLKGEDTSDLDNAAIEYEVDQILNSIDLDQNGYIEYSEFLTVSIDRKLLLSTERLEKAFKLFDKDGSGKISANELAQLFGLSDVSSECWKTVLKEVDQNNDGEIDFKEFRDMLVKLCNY

[2] = molecular target: Calcium-dependent protein kinase 1 (Plasmodium falciparum, UniProt P62344); assay: MMV: CDPK1 Protein kinase inhibition assay using recombinant PfCDPK1, syntide 2 peptide substrate, ATP and KinaseGlo to measure % inhibition at 1 uM MMV box compound.
[3] = molecular target: T2, Cdk-related protein kinase 6 (Plasmodium falciparum, UniProt O77239); assay: Final concentrations were 1.5 uM ATP, 5 mM MnCl2, and 15 ug/ml PK6 in a buffer of 100 mM Tris-HCl (pH 7.5). 50 ug/mL MBP was provided as the substrate; 10 uM staurosporine was used as a control inhibitor. Incubation time was 3 hours and 40 minutes.The catalytic activity of each kinase was considered proportional to ATP consumed, as determined from measurements of residual [ATP] with the luciferase-based reagent Kinase-Glo (Promega) following incubation. Luminescence (proportional to residual [ATP]) was measured on the plate readers FLx800 (BioTek Instruments, Winooski, VT, USA) and MicroBeta2.
T2 sequence (O77239 whole entry): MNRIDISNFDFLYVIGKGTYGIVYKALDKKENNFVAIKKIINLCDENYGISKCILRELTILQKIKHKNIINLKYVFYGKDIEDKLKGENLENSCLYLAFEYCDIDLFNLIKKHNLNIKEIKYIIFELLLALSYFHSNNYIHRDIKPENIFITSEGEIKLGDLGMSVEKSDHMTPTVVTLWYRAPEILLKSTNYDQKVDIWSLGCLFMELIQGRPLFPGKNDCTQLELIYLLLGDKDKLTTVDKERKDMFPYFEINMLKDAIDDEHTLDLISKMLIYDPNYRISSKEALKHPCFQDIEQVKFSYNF

Proline--tRNA ligase = molecular target: T3, Proline--tRNA ligase (Plasmodium falciparum (isolate 3D7), UniProt Q8I5R7); assay: MMV: ProRS recombinant Plasmodium falciparum Prolyl-tRNA-synthetase, assay with yeast tRNA, ATP, and proline and 3 uM MMV malaria box compound, assay read out with kinase glo as % inhibition.
T3 sequence (Q8I5R7 whole entry): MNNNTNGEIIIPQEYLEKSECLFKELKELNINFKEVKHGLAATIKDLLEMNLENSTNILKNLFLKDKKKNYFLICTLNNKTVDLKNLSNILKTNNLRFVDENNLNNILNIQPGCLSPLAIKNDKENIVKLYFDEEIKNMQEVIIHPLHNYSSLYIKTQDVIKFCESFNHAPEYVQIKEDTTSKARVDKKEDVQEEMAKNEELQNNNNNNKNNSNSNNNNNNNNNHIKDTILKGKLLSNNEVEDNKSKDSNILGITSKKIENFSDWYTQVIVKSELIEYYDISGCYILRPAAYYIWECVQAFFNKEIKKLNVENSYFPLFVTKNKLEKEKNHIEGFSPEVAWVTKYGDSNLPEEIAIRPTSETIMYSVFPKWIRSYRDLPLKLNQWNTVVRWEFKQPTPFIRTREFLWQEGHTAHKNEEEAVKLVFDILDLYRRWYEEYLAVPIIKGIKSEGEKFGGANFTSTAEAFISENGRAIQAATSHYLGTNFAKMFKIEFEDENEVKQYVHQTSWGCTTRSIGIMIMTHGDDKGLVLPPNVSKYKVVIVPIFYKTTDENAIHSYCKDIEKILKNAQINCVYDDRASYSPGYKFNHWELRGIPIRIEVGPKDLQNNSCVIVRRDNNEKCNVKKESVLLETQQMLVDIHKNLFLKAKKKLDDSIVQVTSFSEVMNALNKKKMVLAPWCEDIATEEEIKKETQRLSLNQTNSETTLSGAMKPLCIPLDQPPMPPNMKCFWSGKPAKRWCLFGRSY

[4] = molecular target: T4, Putative uncharacterized protein pk7 (Plasmodium falciparum, UniProt O96214); assay: Final concentrations were 1 uM ATP, 2 mM DTT, 20 mM MgCl2, 2 mM MnCl2, 0.01% BSA, and 6 ug/ml PK7, in a buffer of 20 mM Tris-HCl (pH 7.5). The enzyme itself was the only substrate present (since autophosphorylation occurs); 100 uM 1NA-PP1 was used as a control inhibitor. Incubation time was 3 hours.
T4 sequence (O96214 whole entry): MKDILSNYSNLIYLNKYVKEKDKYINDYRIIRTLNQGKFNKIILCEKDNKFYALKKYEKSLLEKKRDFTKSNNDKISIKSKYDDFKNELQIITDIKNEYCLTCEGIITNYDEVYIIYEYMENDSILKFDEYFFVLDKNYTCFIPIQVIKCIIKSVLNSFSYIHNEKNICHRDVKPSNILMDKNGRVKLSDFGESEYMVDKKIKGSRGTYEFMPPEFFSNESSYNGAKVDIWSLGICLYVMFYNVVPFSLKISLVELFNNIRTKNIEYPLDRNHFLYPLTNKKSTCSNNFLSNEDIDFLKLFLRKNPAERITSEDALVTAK

Lysine--tRNA ligase = Lysine--tRNA ligase (Plasmodium falciparum (isolate 3D7), UniProt Q8IDJ8); assay: MMV: KRS recombinant Plasmodium falciparum Lysyl-tRNA-synthetase, assay with yeast tRNA, ATP, and lysine and 3 uM MMV malaria box compound, assay read out with kinase glo as % inhibition.
[5] = molecular target: T5, Mitogen-activated protein kinase (Plasmodium falciparum, UniProt Q25917); assay: Final concentrations were 1 uM ATP, 0.5 mM DTT, 1 mM MgCl2, 0.5 mg/mL BSA, and 10 ug/ml MAP2 in a buffer of 50 mM HEPES (pH 7.0). 0.5 mg/mL histone III-S served as the substrate (13); 100 uM AMP-PNP, an ATP analog, was used as a control inhibitor. Incubation time was 4 hours.
T5 sequence (Q25917 whole entry): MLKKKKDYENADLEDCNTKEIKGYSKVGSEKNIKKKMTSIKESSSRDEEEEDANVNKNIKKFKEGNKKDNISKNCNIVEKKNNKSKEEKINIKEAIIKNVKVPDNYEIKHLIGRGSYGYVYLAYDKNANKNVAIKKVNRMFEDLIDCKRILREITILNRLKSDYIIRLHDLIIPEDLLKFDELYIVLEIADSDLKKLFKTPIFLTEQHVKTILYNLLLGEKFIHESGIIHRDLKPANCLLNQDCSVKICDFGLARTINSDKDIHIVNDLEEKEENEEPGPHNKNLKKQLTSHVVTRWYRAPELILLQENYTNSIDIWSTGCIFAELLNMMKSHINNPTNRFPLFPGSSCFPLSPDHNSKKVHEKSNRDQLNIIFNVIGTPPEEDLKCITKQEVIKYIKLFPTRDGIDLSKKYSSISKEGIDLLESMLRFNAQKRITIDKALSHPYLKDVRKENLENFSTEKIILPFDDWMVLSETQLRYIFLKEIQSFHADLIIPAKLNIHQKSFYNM

Calcium-dependent protein kinase 1, sequence (P62344 whole entry): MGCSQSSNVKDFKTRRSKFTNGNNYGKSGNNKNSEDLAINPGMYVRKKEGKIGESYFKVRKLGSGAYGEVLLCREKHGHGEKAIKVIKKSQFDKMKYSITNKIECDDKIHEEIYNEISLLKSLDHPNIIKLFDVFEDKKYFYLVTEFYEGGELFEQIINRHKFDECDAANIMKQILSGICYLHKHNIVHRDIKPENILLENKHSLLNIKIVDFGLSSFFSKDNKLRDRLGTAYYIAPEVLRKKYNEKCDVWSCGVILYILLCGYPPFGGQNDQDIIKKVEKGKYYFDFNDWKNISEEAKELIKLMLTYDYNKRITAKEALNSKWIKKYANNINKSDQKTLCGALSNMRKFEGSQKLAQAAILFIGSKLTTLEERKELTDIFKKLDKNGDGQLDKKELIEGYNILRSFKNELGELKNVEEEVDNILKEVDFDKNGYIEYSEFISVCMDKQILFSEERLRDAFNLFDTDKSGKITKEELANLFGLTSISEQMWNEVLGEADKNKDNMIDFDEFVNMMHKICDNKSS
Lysine--tRNA ligase, sequence (Q8IDJ8 whole entry): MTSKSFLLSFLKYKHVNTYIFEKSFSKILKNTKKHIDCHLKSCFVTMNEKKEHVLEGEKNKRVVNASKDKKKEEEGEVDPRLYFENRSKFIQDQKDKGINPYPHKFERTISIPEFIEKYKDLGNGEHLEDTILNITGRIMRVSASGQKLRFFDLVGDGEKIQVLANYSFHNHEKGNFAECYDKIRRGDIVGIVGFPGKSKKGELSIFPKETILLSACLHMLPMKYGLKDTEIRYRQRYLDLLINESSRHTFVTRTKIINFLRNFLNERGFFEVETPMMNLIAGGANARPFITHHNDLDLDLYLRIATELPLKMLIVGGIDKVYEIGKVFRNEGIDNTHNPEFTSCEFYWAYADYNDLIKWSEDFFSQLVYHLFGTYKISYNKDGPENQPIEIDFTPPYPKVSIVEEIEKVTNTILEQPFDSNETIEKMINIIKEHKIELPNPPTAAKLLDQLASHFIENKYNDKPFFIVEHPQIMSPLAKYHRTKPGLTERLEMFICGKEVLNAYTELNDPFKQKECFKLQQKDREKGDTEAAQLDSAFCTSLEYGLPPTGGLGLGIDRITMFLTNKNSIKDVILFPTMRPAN

Row | SMILES | IC50 [1] [nM] | IC50 [2] [nM] | IC50 [3] [nM] | IC50 (Proline--tRNA ligase) [nM] | IC50 [4] [nM] | IC50 (Lysine--tRNA ligase) [nM] | IC50 [5] [nM]
1 | CCOc1cc(CNC(C)C(O)c2ccccc2)cc(Cl)c1OCC (centres undefined) | > 1000 | > 1000 | > 1000 | > 2500 | > 1000 | > 2500 | > 1000
2 | Cc1cc(NC(=O)c2cccc(C(F)(F)F)c2)n(-c2nc(-c3ccc4c(c3)OCO4)cs2)n1 | > 1000 | > 1000 | > 1000 | > 2500 | > 1000 | > 2500 | > 1000
3 | Cc1cccc(-n2ncc3c(O)nc(-n4nc(C)cc4NC(=O)c4cc5ccccc5o4)nc32)c1 | > 1000 | > 1000 | > 1000 | > 2500 | > 1000 | > 2500 | > 1000
4 | Oc1ccccc1CN1CCC2(CCCN(Cc3ccccc3F)C2)C1 (centres undefined) | > 1000 | > 1000 | > 1000 | > 2500 | > 1000 | > 2500 | > 1000
5 | COCCNCC(O)Cn1c2ccc(Cl)cc2c2cc(Cl)ccc21 (centres undefined) | > 1000 | > 1000 | > 1000 | > 2500 | > 1000 | > 2500 | > 1000
6 | O=C(NC1CCN(Cc2ccccc2)CC1)c1cc(-c2ccncc2)nc2ccc(Cl)cc12 | > 1000 | > 1000 | > 1000 | > 2500 | > 1000 | > 2500 | > 1000
7 | COc1cc2cc(C(=O)Nc3ccccc3)c(N)nc2cc1OC | > 1000 | > 1000 | > 1000 | > 2500 | > 1000 | > 2500 | > 1000
8 | Oc1ccccc1CN1CCN(C(c2ccccc2)c2ccccc2)CC1 | > 1000 | > 1000 | > 1000 | > 2500 | > 1000 | > 2500 | > 1000
9 | CN1CCN(c2c3c(c(C#N)c4nc5ccccc5n24)CCC3)CC1 | > 1000 | > 1000 | > 1000 | > 2500 | > 1000 | > 2500 | > 1000
10 | CCOc1ccc(C2N(C)c3ccccc3N2C)cc1 | > 1000 | > 1000 | > 1000 | > 2500 | > 1000 | > 2500 | > 1000
11 | COc1nc(Nc2ccc(C(C)C)cc2)nc(OC)n1 | > 1000 | > 1000 | > 1000 | > 2500 | > 1000 | > 2500 | > 1000
12 | CCN(CC)CCNc1ncnc2c1[nH]c1ccc(Br)cc12 | > 1000 | > 1000 | > 1000 | > 2500 | > 1000 | > 2500 | > 1000
13 | CCOc1cccc(C(=O)Nc2ccc(-c3nc4ccccc4[nH]3)cc2)c1 | > 1000 | > 1000 | > 1000 | > 2500 | > 1000 | > 2500 | > 1000
14 | Clc1cc(Br)ccc1-c1ccc(CNCC2CCNCC2)o1 | > 1000 | > 1000 | > 1000 | > 2500 | > 1000 | > 2500 | > 1000
15 | COc1ccc(-c2nonc2NC(=O)c2cccc(C)c2)cc1OC | > 1000 | > 1000 | > 1000 | > 2500 | > 1000 | > 2500 | > 1000
16 | O=C(Nc1ccc(N2CCN(Cc3ccccc3)CC2)cc1)c1cccs1 | > 1000 | > 1000 | > 1000 | > 2500 | > 1000 | > 2500 | > 1000
17 | O=C(Nc1ccc(N2CCCCC2)c(Cl)c1)c1ccc(Br)o1 | > 1000 | > 1000 | > 1000 | > 2500 | > 1000 | > 2500 | > 1000
18 | CC1CC(C)CN(C(=O)c2ccc(Cl)cc2Cl)C1 (centres undefined) | > 1000 | > 1000 | > 1000 | > 2500 | > 1000 | > 2500 | > 1000
19 | OC(CNC1CCCC1)Cn1c2ccccc2c2ccccc21 (centres undefined) | > 1000 | > 1000 | > 1000 | > 2500 | > 1000 | > 2500 | > 1000
20 | Clc1ccc2[nH]c3c(NCCCN4CCOCC4)ncnc3c2c1 | > 1000 | > 1000 | > 1000 | > 2500 | > 1000 | > 2500 | > 1000
21 | CCc1ccc(Nc2cc(C)nc3nc(C)nn23)cc1 | > 1000 | > 1000 | > 1000 | > 2500 | > 1000 | > 2500 | > 1000
22 | C=CCc1c(C)nc2ccccc2c1O | > 1000 | > 1000 | > 1000 | > 2500 | > 1000 | > 2500 | > 1000

Reference: ChEMBL document CHEMBL3301562, “MMV Box screening against Plasmodium falciparum protein kinases and aminoacyl tRNA synthetases”
